Experimental data reported in patent US20250002471A1 (Gilead Sciences, Inc., priority 2020, published 2025).

How the values were obtained:
[1] = molecular target: T1, TLR7 (Homo sapiens, UniProt Q9NYK1); assay: Human PBMC cell-based assay, TLR7 agonist GS-986 stimulation, cytokine (IL-6 and IFNα) readout; settings: human PBMCs, GS-986 400 nM, 6 hours; Table 26; read-out: TLR-7 EC50
T1 construct: lymphocytes, monocytes and dendritic cells that express TLR7, TLR8 and TLR9; endogenous in cells; host or cells: human PBMCs from healthy donors
T1 sequence (Q9NYK1 27-1049): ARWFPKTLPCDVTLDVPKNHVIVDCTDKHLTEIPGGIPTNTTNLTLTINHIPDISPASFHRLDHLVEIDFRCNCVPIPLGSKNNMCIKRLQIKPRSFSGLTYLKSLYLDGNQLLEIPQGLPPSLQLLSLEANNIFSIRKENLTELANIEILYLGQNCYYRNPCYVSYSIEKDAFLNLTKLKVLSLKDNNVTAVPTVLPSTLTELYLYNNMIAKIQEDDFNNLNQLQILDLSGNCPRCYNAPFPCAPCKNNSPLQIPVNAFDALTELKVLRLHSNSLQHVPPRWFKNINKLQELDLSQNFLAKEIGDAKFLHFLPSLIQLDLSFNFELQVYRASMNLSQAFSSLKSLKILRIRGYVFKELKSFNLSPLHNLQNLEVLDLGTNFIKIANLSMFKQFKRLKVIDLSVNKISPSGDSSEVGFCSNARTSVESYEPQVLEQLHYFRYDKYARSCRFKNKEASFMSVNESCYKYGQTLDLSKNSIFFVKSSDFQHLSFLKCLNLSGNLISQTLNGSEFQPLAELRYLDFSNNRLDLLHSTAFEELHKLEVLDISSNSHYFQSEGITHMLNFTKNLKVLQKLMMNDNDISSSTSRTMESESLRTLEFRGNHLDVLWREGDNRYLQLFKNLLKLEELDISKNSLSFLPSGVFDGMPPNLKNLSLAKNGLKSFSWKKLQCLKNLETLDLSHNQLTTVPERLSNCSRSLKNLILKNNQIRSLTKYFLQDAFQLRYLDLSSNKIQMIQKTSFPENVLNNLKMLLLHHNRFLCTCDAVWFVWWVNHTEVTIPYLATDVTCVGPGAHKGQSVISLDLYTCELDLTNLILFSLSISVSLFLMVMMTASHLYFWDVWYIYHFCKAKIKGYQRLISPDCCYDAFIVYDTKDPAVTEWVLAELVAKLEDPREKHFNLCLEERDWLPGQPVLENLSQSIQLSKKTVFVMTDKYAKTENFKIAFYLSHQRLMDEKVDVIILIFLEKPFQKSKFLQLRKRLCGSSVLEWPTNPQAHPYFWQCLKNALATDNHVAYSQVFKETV
Outline: (§1)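 Readout is IL-6 and IFNα in supernatants, quantified by electrochemiluminescence, with EC50 from a sigmoidal fit of cytokine versus concentration. Healthy-donor human PBMCs, 100,000 per well, got antagonist for 1 h at 37 °C, then 6 h agonist exposure: TLR7 via GS-986 at 400 nM final, TLR9 via ODN-2216 at 3 μM final.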

[2] = molecular target: T2, TLR8 (Homo sapiens, UniProt Q9NR97); assay: TLR8 human PBMC cell-based assay, TLR8 agonist Compound A stimulation, cytokine (TNFa and IL12p40) readout; settings: human PBMCs, Compound A 800 nM, 6 hours; Table 26; read-out: TLR-8 EC50
T2 construct: lymphocytes, monocytes and dendritic cells that express TLR7, TLR8 and TLR9; endogenous in cells; host or cells: human PBMCs from healthy donors
T2 sequence (Q9NR97 27-1041): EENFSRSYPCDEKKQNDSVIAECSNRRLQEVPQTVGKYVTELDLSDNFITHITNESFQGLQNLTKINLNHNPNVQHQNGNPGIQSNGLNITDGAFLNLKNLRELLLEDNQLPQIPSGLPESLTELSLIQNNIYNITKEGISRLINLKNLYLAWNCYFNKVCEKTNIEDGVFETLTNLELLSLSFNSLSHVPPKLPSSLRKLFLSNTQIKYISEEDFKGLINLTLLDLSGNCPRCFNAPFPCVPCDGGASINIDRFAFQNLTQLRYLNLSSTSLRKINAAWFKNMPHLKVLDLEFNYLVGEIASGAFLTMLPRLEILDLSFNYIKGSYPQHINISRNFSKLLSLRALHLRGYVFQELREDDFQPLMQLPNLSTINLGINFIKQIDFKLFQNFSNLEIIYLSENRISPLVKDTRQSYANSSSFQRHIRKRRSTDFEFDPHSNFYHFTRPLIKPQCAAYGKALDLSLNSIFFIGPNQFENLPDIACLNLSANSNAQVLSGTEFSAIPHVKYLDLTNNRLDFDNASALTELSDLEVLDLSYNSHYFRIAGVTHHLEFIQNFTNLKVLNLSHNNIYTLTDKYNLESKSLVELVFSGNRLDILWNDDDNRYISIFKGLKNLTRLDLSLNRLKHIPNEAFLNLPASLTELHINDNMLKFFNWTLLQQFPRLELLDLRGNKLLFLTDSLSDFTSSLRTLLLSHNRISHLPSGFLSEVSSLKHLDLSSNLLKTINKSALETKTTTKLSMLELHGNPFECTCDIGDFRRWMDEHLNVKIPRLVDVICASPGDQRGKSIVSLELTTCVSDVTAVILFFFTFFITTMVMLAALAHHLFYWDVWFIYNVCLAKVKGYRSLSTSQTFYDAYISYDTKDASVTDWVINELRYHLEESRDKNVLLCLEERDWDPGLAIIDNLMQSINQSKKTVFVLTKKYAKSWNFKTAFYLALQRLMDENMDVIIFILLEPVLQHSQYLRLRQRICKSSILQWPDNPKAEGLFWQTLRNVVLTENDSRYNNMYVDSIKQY
Experimental: Cryopreserved human PBMCs from healthy donors were thawed and resuspended in RPMI-1640 media with L-glutamine (Corning) supplemented with 10% Fetal Bovine Serum (Hyclone) and 1X Penicillin-Streptomycin (Corning). After counting, the cell density was adjusted to 2 million cells/ml and incubated for 1 hour at 37° C., 5% CO2 for recovery. Following the recovery, the cells were plated by adding 50p per well (100,000 cells) to 384-well cell culture plates (Greiner) containing 250nl of test antagonists in 100% DMSO per well, in a 10 points dose response in quadruplicates. PBMCs were incubated in the presence of antagonists for one hour at 37° C., 5% CO2 before being stimulated with TLR8 agonist. Compound A (Gilead Sciences, U.S. Pat. No. 10,285,990) was used as the TLR8 agonist at a final concentration of 800 nM. PBMCs were incubated in the presence of antagonist and the TLR8 agonist for an additional 6 hours at 37° C., […]. At the end of the incubation, the cell culture plates were centrifuged at 500 g for 5 min, and the cell culture supernatant was collected. The level of cytokines (TNFa and IL12p40) in the supernatant was measured by electrochemiluminescence immunoassays (Mesoscale Discovery) following manufacturer's recommended protocols. The level of cytokine measured was plotted against the antagonist concentration and fitted to a sigmoidal function to determine the EC50, which are shown below in Table 11.

[3] = molecular target: T3, TLR9 (Homo sapiens, UniProt Q9NR96); assay: Human PBMC cell-based assay, TLR9 agonist ODN-2216 stimulation, cytokine (IL-6 and IFNα) readout; settings: human PBMCs, ODN-2216 3 μM, 6 hours; Table 26; read-out: TLR-9 EC50
T3 construct: lymphocytes, monocytes and dendritic cells that express TLR7, TLR8 and TLR9; endogenous in cells; host or cells: human PBMCs from healthy donors
T3 sequence (Q9NR96 26-1032): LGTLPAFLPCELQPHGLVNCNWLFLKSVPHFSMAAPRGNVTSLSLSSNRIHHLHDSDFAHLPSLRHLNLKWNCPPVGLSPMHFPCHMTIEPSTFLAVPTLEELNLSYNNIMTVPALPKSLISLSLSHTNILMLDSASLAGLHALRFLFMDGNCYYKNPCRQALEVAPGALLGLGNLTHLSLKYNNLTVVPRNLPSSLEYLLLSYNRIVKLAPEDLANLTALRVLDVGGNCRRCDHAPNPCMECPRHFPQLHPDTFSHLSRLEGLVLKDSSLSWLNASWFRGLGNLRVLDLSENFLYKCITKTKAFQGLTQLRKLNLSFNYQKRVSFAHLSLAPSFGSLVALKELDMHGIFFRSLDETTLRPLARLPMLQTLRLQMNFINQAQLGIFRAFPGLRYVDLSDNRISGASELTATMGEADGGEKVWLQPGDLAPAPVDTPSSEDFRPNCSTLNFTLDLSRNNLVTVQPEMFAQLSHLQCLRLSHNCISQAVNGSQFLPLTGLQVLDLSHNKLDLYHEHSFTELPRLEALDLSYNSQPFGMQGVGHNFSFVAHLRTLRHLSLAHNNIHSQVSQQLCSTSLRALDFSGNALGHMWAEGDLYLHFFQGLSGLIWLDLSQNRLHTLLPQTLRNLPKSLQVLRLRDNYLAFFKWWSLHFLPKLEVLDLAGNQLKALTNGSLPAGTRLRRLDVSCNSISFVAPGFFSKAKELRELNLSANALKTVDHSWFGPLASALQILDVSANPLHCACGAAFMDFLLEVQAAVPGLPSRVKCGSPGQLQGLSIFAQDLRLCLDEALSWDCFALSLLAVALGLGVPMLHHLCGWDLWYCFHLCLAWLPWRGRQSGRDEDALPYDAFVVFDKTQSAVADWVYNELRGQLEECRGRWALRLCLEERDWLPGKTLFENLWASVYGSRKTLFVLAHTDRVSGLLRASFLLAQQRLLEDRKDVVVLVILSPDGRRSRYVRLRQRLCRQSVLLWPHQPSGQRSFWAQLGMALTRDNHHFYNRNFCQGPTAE
Outline: as §1

Row | Molecule | EC50 [1] | EC50 [2] | EC50 [3]
1 | Cc1c(-c2cc(C)c3ncnn3c2)[nH]c2cc(-c3nnc(N4CCNCC4)o3)ccc12 [Example 192] | 65.6 nM | 403 nM | –
2 | Cc1c(-c2cc(C)c3ncnn3c2)[nH]c2cc(-c3nnc(C4CCNCC4)o3)ccc12 [Example 191] | 49.1 nM | 269 nM | –
3 | Cc1cc(-c2[nH]c3cc(-c4ccc(N5CCNCC5)nc4)ccc3c2C2CC2)cn2ncnc12 [Example 175] | 0.15 nM | 8.15 nM | –
4 | CCc1c(-c2cc(OC)c3ncnn3c2)[nH]c2cc(-c3ccc(N4CCN(C(=O)C56CC(CN5)C6)CC4)nc3)ccc12 [Example 174] | 0.12 nM | 3.33 nM | –
5 | CCc1c(-c2cc(C)c3ncnn3c2)[nH]c2cc(-c3ccc(N4CCN(CCO)CC4)nc3)ccc12 [Example 173] | 0.11 nM | 5.16 nM | –
6 | CCc1c(-c2cc(C)c3ncnn3c2)[nH]c2cc(C3CCNCC3)ccc12 [Example 52] | 12 nM | – | 1920 nM
7 | Cc1cc(-c2[nH]c3cc(-c4nc(C5CCNCC5)no4)ccc3c2C)cc(C)n1 [Example 189] | 108 nM | – | 217 nM
8 | Cc1cc(-c2[nH]c3cc(C(=O)N4CCC5(CCNCC5)CC4)ccc3c2C)cc(C)n1 [Example 180] | > 1000 nM | – | 835 nM
9 | Cc1cc(-c2[nH]c3cc(-c4ccc(N5C[C@H]6CC[C@@H](C5)[C@@H]6N)nc4)ccc3c2C)cc(C)n1 [Example 28] | 63 nM | – | 69.9 nM
10 | Cc1cc(-c2[nH]c3cc(-c4cccc(C(=O)N5CC[C@H](N)C5)c4)ccc3c2C)cc(C)n1 [Example 119, (S)-(3-aminopyrrolidin-1-yl)(3-(2-(2,6-dimethylpyridin-4-yl)-3-methyl-1H-indol-6-yl)phenyl)methanone] | 54.1 nM | – | 193 nM
11 | Cc1cc(-c2[nH]c3cc(-c4csc(N5CCNCC5)n4)ccc3c2C)cc(C)n1 [Example 146, 4-[2-(2,6-dimethyl-4-pyridyl)-3-methyl-1H-indol-6-yl]-2-piperazin-1-yl-thiazole] | 119 nM | – | 37.4 nM
12 | Cc1cc(-c2[nH]c3cc(-c4cnc5c(c4)CNCC5)ccc3c2C)cc(C)n1 [Example 9] | 38.1 nM | – | 50.5 nM
13 | Cc1cc(-c2[nH]c3cc(-c4ccc(N5CCC[C@@H](N)C5)nc4)ccc3c2C)cc(C)n1 [Example 25] | 5.9 nM | – | 39.1 nM
14 | Cc1cncc(-c2[nH]c3cc(-c4ccc(N5CCNCC5)nc4)ccc3c2C)n1 [Example 98] | 1130 nM | – | 1520 nM
15 | Cc1cc(-c2[nH]c3cc(-c4ccc5nc([C@H]6CCCCN6)[nH]c5c4)ccc3c2C)cc(C)n1 [Example 164] | 22.8 nM | – | 49.1 nM
16 | Cc1cc(-c2[nH]c3cc(-c4ccc(C(=O)N5CC[C@H](N)C5)cc4)ccc3c2C)cc(C)n1 [Example 120, (S)-(3-aminopyrrolidin-1-yl)(4-(2-(2,6-dimethylpyridin-4-yl)-3-methyl-1H-indol-6-yl)phenyl)methanone] | 152 nM | – | 89.5 nM
17 | Cc1cc(-c2[nH]c3cc(-c4ccc5cccnc5c4)ccc3c2C)cc(C)n1 [Example 47] | 652 nM | – | 400 nM
18 | Cc1cc(-c2[nH]c3cc(-c4ccc(N5CCN(C(=O)C67CNC(C6)C7)CC5)nc4)ccc3c2C)cc(C)n1 [Example 140] | 30.5 nM | – | 42.3 nM
19 | Cc1cncc(-c2[nH]c3cc(-c4ccc(N5CCNCC5)nc4)ccc3c2C)c1 [Example 84] | 1990 nM | – | 964 nM
20 | 2-(2,6-dimethylpyridin-4-yl)-3-methyl-6-(1′,2′,3′,6′-tetrahydro-[2,4′-bipyridin]-5-yl)-1H-indole [Example 133] | 24.8 nM | – | 50.4 nM
